Assay results: PMC11345829, “Discovery of Potent Isoquinolinequinone N-Oxides to Overcome Cancer Multidrug Resistance” (Journal of Medicinal Chemistry, 2024)

What was measured:
NCI-ADR/RES = test system: NCI-ADR/RES; parameters: method as in PMID 31894828; conditions: MDR cell line, high P-gp; read-out: growth inhibition (GI50) NCI/ADR-RES; cited from earlier work
MCF12A = test: SRB cytotoxicity assay, nontumorigenic breast cells; format: cell-based, human; conditions: 48 h at GI50 concentration obtained on NCI-H460 cells
Procedure: Selectivity over nontumorigenic cells is a key requirement in cancer therapy so the cytotoxicity of 25 against nontumorigenic lung fibroblast (MRC-5) and breast cell lines (MCF12A) was evaluated with the SRB assay.
Compound 25 was also tested on the nontumorigenic MCF-12A human breast epithelial cell line. […] Following this treatment, the SRB assay was performed as described above.
S3.5 Effect of 25 on the non-tumorigenic MCF12A cell line (Figure S66)
Figure S66 Cytotoxic effect of compound 25 on the non-tumorigenic MCF12A cell line, analysed by the
obtained in the NCI-H460 and NCI-H460/R pair of counterpart cell lines. Results are presented as the
% of cell growth relative to the control cells (treated with the compound vehicle, DMSO at the % used
Data are expressed as mean ± SEM from 3 independent experiments.
(1 picture or pasted object on this page, not shown here)

NCI-H460 cells = test: Annexin V-FITC/PI cell death assay; format: cell-based, human; conditions: 48 h; 0.35 and 0.7 μM
Procedure: The effect of compound 25 on the levels of apoptosis and necrosis was evaluated using annexin V-FITC/PI labeling followed by flow cytometry analysis.
Figure 9 Effect of compound 25 on the levels of death of NCI-H460 cells, analyzed by flow cytometry (annexin V−PI assay). […] Results are the mean ± SEM from at least 3 independent experiments. * p ≤ 0.05, when comparing DMSO vs compound treatment.
Analysis of cell death was performed using the Annexin V-FITC apoptosis detection kit (eBioscience, Thermo Fisher Scientific). […] Exposure to 5% ethanol for 1 h was used as a positive control for necrosis. Collected cells were resuspended in the binding buffer solution and incubated with the Annexin V-FITC conjugate for 10 min at RT, in the dark. Afterward, PI was added, and samples were analyzed using the BD Accuri C6 flow cytometer, where at least 10 000 events per sample were plotted. Data analysis was carried out using the BD Accuri C6 Software.

DLD1-TxR spheroids = test: Cell Titer-Glo 3D spheroid viability assay; format: cell-based, human; conditions: 48 h; 25 at 0.61 and 1.22 μM
Excerpt: (§1) Figure 12 Effect of compound 25 on the viability of spheroids established from two counterpart pairs of sensitive and MDR cell lines, from NSCLC (NCI-H460 and NCI-H460/R) and colorectal cancer (DLD1 and DLD1-TxR), using MicroTissue 3D Petri dishes. […] (B) Effect of compound 25 on the viability of NCI-H460 spheroids analyzed by Cell Titer-Glo 3D viability assay. (C) Effect of compound 25 on the viability of NCI-H460/R spheroids analyzed with the Cell Titer-Glo 3D viability assay. Results are presented as the % of luciferase luminescence relative to the “blank” cells (medium). […] (E) Effect of compound 25 on the viability of DLD1 spheroids analyzed by Cell Titer-Glo 3D viability assay. (F) Effect of compound 25 on the viability of DLD1-TxR spheroids analyzed with the Cell Titer-Glo 3D viability assay. Data are expressed as mean ± SEM from 3 independent experiments. * p ≤ 0.05 and ** p ≤ 0.01, when comparing DMSO vs compound treatment.
(§2) Spheroid formation was conducted in 12-series agarose 3D Petri Dish micromolds (MicroTissues Technology, MicroTissues Inc., Sigma-Aldrich). The agarose micromolds were prepared using 1% agarose in a 0.9% NaCl solution and then placed in 12-well plates and equilibrated with RPMI supplemented with 10% FBS for at least 2 h before cell seeding. Cell suspensions corresponding to 500 cells per spheroid of the NSCLC cell lines (NCI-H460 and NCI-H460/R), and 1000 cells per spheroid of the colorectal cancer cell lines (DLD1 and DLD1-TxR) were seeded in the corresponding micromolds. The choice of cell seeding concentration was based on a previous optimization assay (data not shown), ensuring that at the end of the assay the spheroids would have a size of around 400 μm. A 20 min incubation period was used for cells to settle into the micromolds and additional medium was finally added to the wells. Spheroid formation was monitored with the Leica DMi1 microscope. […] At the end of the treatment, images from at least 8 different spheroids per condition were captured on the Leica Dmi1 microscope, and posteriorly analyzed with the automated open-source software AnaSP.[82] Spheroid parameters, such as equivalent diameter, circularity, and compactness, were calculated.
(§3) Spheroid viability was determined through the luminescence-based Cell Titer-Glo 3D cell viability assay (Promega). Spheroids grown on MicroTissues 3D Petri Dish micromolds were exposed to the treatments, as described in the previous section. Then, the spheroids were transferred into 96-well plates in 50 μL of RPMI medium. […] The plate was then incubated in the dark for 5 min with agitation and allowed to rest for 25 min before luminescence measurement. Luminescence was quantified using the microplate reader Synergy MX coupled with the GEN5 software. […]

DLD1 spheroids = test: Cell Titer-Glo 3D spheroid viability assay; format: cell-based, human; conditions: 48 h; 25 at 0.61 and 1.22 μM
Excerpt: as §1, §2, §3

NCI-H460 spheroid = test system: NCI-H460 spheroid; parameters: method as in PMID 34915071; conditions: 3D; cited from earlier work

## COC(=O)c1c2c(c(C)[n+]([O-])c1C)C(=O)C=C(NCc1ccccc1)C2=O [Compound 2]
NCI-ADR/RES
  GI50: 535 nM

## COC(=O)c1c2c(c[n+]([O-])c1C)C(=O)C=C(NCc1ccccc1)C2=O [Compound 25]
MCF12A
  effect on MCF12A growth: did not cause significant alterations in the growth of these nontumorigenic cells
NCI-H460 cells
  percentage of dead cells (apoptosis/necrosis): did not cause an increase in the percentage of dead cells
DLD1-TxR spheroids
  viability of DLD1-TxR spheroids: significant decrease in the viability of the spheroids
DLD1 spheroids
  viability of DLD1 spheroids: significant decrease in the viability of the spheroids

## COc1cccc2c1C(=O)c1c(O)c3c(c(O)c1C2=O)C[C@@](O)(C(=O)CO)C[C@@H]3O[C@H]1C[C@H](N)[C@H](O)[C@H](C)O1 [doxorubicin, reference compound]
NCI-H460 spheroid
  concentration reducing NCI-H460 spheroid viability: 20 µM
